Laboratory results taken from patent publication US8933117B2, “Crystals of substituted cycloalkene derivatives” (Daiichi Sankyo Company, Limited, priority 2010, dated 2015).
“Also recorded” adds a separate entry of the source. Read-outs that look alike come from different tables or passages of the source.

How the values were obtained:
[1] = Solubility test; assay type: physicochemical; details: aqueous phosphate solution with 150 mM NaCl, pH around 7.5
Procedure: 150 mg of each of the compounds of Examples 1 and 2 and Comparative Example 1 was dissolved in 5 mL of an aqueous phosphate solution containing sodium chloride (containing 150 mM NaCl and 10 mM […]). After the resulting mixture was stirred for 30 minutes while measuring the pH of the mixture, a 0.5 mL portion of the resulting suspension was taken and filtered through a syringe filter. A 100 μL portion of the obtained filtrate was transferred into a 10-mL volumetric flask and diluted to 10 mL with an aqueous solution of 50% MeCN, whereby a sample solution was prepared. To the suspension, concentrated HCl was added dropwise to adjust the pH thereof to around 7.5.
Measurement was performed using HPLC under the following conditions.
HPLC system: Water's Alliance
Column: XTerra MS C18 3.5 μm, Column Size: 4.6×100 mm
Column Temp: 40° C., Flow Rate: 1.2 mL/min
Solvent A: 0.1% phosphoric acid in water, Solvent B: 0.1% phosphoric acid in MeCN

[2] = Moisture absorption test (hygroscopicity); assay type: physicochemical; details: 25° C.; for Hygroscopicity (in words): measurement humidity 10 to 95% RH; for Hygroscopicity, change in weight: relative humidity 10→80%
Procedure: A sample was weighed in a glass sample cup, and the weight thereof was measured under the following conditions.
Measuring device: DVS Advantage, manufactured by Surface Measurement System Ltd.
Measurement temperature: 25° C., Minimum exposure time: 15 min, Maximum exposure time: 120 min, Step transition condition: within 0.006 wt. %
The appearance of the sample at the time of completion of the measurement was confirmed.

[3] = Solution stability test; details: light tester, versus light-shielded control
Procedure: (§1) The above flasks as such and the flasks covered with aluminum foil for light shielding as controls were placed in a light tester at 25° C. After one day, each solution was diluted to 10 mL with 50% MeCN. The concentration of each solution was calculated by performing HPLC under the same conditions as used in the above-described solubility test, and the change in concentration from the control was calculated.

[4] = pH 7
Procedure: as §1

[5] = system: blood TNF-α level; assay: Suppressive effect on elevation of blood TNF-α level (in vivo); parameters: species or system Sprague Dawley rats; details: test compound 0.3 mg/kg, femoral vein, 0.5 hours before LPS; rat plasma 2 hours after LPS
Procedure: The suppressive effect of the compound of the present invention on the elevation of blood TNF-α level was studied. A test for the elevation of blood TNF-α level was performed in accordance with the method of Parant et al. described in Journal of Leukocyte Biology, Vol. 47, page 164 (1990).
In the test, 3 to 4 male Sprague Dawley rats (8 to 9 weeks of age) were used for each group.
At 4 hours before the administration of LPS, muramyl dipeptide dissolved in physiological saline (1 mg/mL) was administered to each rat through the tail vein at a dose of 1 mL/kg. At 0.5 hours before the administration of LPS, the rats were anaesthetized with pentobarbital (40 mg/kg), and the compound of the present invention dissolved in a 5% dimethyl acetamide/95% polyethylene glycol 400 solution was administered to each rat through the right femoral vein at a dose of 1 mL/kg. To the control group, a 5% dimethyl acetamide/95% polyethylene glycol 400 solution was administered at a dose of 1 mL/kg. […] The plasma TNF-α level was determined using a TNF-α quantitative determination kit (BioSource International, Inc.). From the blood TNF-α level in the control group (X) and the blood TNF-α level in the group administered with the compound of the present invention (Y), the rate of suppression of TNF-α production was calculated according to the following calculation formula [II]. […]

[6] = system: TNF-α production in human monocytic cell line U937 stimulated with endotoxin; assay: Suppressive effect on production of TNF-α in cells stimulated with endotoxin (in vitro); assay type: cell-based; details: concentration of test compound: 100 nM, LPS 30 ng/ml, 4.5 hours
Procedure: The rate of suppression of TNF-α production when human monocytic cell line U937 was stimulated with endotoxin was determined for the compound of the present invention. Specifically, to RPMI-1640 medium containing 10% (volume %) of inactivated newborn bovine serum, 12-O-tetradecanoylphorbol-13-acetate was added to give a final concentration of 30 ng/ml. U937 cells were suspended in the medium and plated into a 96-well culture plate (Sumilon) so that the number of cells per well/volume was 2×10^4/0.1 mL, and the culture plate was then incubated for 3 days at 37° C. in a carbon dioxide incubator with 5% CO2 and 100% humidity. After completion of the incubation, the culture supernatant was removed. […] By using a 384-well half area black plate (Greiner) and an HTRF quantitative determination kit manufactured by Cisbio International, the concentration of TNF-α in the culture supernatant was measured as time-resolved fluorescence by Discovery (Packard). From the measured value in the absence of LPS (X), the measured value in the absence of the compound of the present invention (Y), and the measured value in the presence of the compound of the present invention (Z), the rate of suppression of TNF-α production was obtained according to the following calculation formula [I]. […]

Row | Compound | Solubility (PBS pH 7.5) [1] | Hygroscopicity (in words) [2] | Hygroscopicity, change in weight [2] | Solution stability (25° C., 1 day) ([3]; McIlvaine buffer pH 8) [%] | Solution stability (25° C., 1 day) [4] [%] | Rate of suppression of TNF-α production [5] [%] | Solution stability (25° C., 1 day) ([3]; PBS pH 6) [%] | Rate of suppression of TNF-α production [6] [%]
1 | CCOC(=O)C1=CC2(CC[C@H]1S(=O)(=O)Nc1ccc(F)cc1Cl)O[C@H](CO)[C@@H](CO)O2 (single isomer, unassigned) [Comparative Example, reference compound] | low solubility | showed high hygroscopicity at every measurement humidity; also recorded: With hygroscopicity | 2.6% (relative | 99.4 | – | – | – | –
2 | CCOC(=O)C1=CC2(CC[C@H]1S(=O)(=O)[N-]c1ccc(F)cc1Br)O[C@H](CO)[C@@H](CO)O2.[K+] [Example 2, Potassium(2-bromo-4-fluorophenyl){[(2R,3R,8R)-7-(ethoxycarbonyl)-2,3-bis(hydroxymethyl)-1,4-dioxaspiro[4.5]deca-6-en-8-yl]sulfonyl}azanide] | 9.6 mg/ml | did not show hygroscopicity | <0.1% (relative | – | 99.4 | 81 | – | –
3 | CCOC(=O)C1=CC2(CC[C@H]1S(=O)(=O)[N-]c1ccc(F)cc1Cl)O[C@H](CO)[C@@H](CO)O2.[K+] [Example 1, Potassium(2-chloro-4-fluorophenyl){[(2R,3R,8R)-7-(ethoxycarbonyl)-2,3-bis(hydroxymethyl)-1,4-dioxaspiro[4.5]deca-6-en-8-yl]sulfonyl}azanide] | 13.8 mg/ml | did not show hygroscopicity | <0.1% (relative | – | – | 96 | 99.9 | 89
